Laboratory results from patent US20100267561A1, “HERBICIDAL PYRIDAZINONE DERIVATIVES” (priority 2007, published 2010).

Columns and labels:
Format in all cases: in vivo
[1] = system: blackgrass (Alopecurus myosuroides); experiment: Test B pre-/postemergence plant response; settings: for Blackgrass plant response rating: 8 g ai/ha
Outline: (§1)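 Visual scoring from 0 (no effect) to 100 (complete control) against untreated controls was done 13 to 15 days after greenhouse treatment. Chemicals were formulated in a surfactant-containing non-phytotoxic solvent and applied to soil preemergence or to 1- to 4-leaf (2-18 cm) plants postemergence.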

[2] = system: catchweed bedstraw (Galium aparine); experiment: Test B pre-/postemergence plant response; settings: Preemergence
Outline: as §1

[3] = system: cocklebur (Xanthium strumarium); experiment: Test B pre-/postemergence plant response; settings: for Cocklebur plant response rating: 8 g ai/ha
Outline: as §1

[4] = system: common (oilseed) sunflower (Helianthus annuus); experiment: Test B pre-/postemergence plant response; settings: Preemergence
Outline: as §1

[5] = system: common ragweed (Ambrosia elation); experiment: Test B pre-/postemergence plant response; settings: for Ragweed plant response rating: 8 g ai/ha
Outline: as §1

[6] = system: giant foxtail (Setaria faberii); experiment: Test B pre-/postemergence plant response; settings: for Foxtail, Giant plant response rating: 8 g ai/ha
Outline: as §1

[7] = system: goosegrass (Eleusine indica); experiment: Test B pre-/postemergence plant response; settings: for Goosegrass plant response rating: 8 g ai/ha
Outline: as §1

[8] = system: johnsongrass (Sorghum halepense); experiment: Test B pre-/postemergence plant response; settings: for Johnsongrass plant response rating: 8 g ai/ha
Outline: as §1

[9] = system: lambsquarters (Chenopodium album); experiment: Test B pre-/postemergence plant response; settings: for Lambsquarters plant response rating: 8 g ai/ha
Outline: as §1

[10] = system: large crabgrass (Digitaria sanguinalis); experiment: Test B pre-/postemergence plant response; settings: for Crabgrass, Large plant response rating: 8 g ai/ha
Outline: as §1

[11] = system: wheat (Triticum aestivum); experiment: Test B pre-/postemergence plant response; settings: for Wheat plant response rating: 8 g ai/ha
Outline: as §1

wild oat (Avena fatua) = experiment: Test B pre-/postemergence plant response; settings: for Oat, Wild plant response rating: 8 g ai/ha
Outline: as §1

[12] = system: yellow nutsedge (Cyperus esculentus); experiment: Test B pre-/postemergence plant response; settings: for Nutsedge, Yellow plant response rating: 8 g ai/ha
Outline: as §1

[13] = system: windgrass (Apera spica-venti); experiment: Test B postemergence plant response; settings: for Plant response rating, Windgrass: Postemergence
Outline: (§2)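 Visual injury score from 0 (none) to 100 (complete control) versus controls, taken 13 to 15 days after treatment in the greenhouse; chemicals applied postemergence, as formulated, to plants of 1- to 4-leaf stage (2 to 18 cm tall); dash denotes no test result.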

[14] = system: winter barley (Hordeum vulgare); experiment: Test B postemergence plant response; settings: for Plant response rating, Barley: Postemergence
Outline: as §2

[15] = Postemergence, 16 g ai/ha, scale 0 to 100
[16] = Postemergence, 31 g ai/ha, scale 0 to 100, 0 no effect, 100 complete control
[17] = Postemergence, 62 g ai/ha, scale 0 to 100
[18] = Preemergence, 62 g ai/ha, scale 0 to 100
[19] = 16 g ai/ha, scale 0 to 100 (0 no effect, 100 complete control)
[20] = 31 g ai/ha, 0 to 100 scale, 0 no effect, 100 complete control
[21] = Preemergence, 16 g ai/ha, scale 0 to 100 (0 no effect, 100 complete control)
[22] = Preemergence, 31 g ai/ha, 0 to 100 scale, 0 no effect, 100 complete control
[23] = 8 g ai/ha, postemergence, 0-100 scale
[24] = 31 g ai/ha, scale 0 to 100, 0 no effect, 100 complete control

## CCc1cc(-c2ccc(F)cc2)nn1-c1c(O)cnn(C)c1=O [Compound 25]
[1]; postemergence, 0-100 scale
  Blackgrass plant response rating: 0
[1]; [15]
  Plant response rating, Blackgrass: 40
[1]; [16]
  Plant response rating, Blackgrass: 75
[1]; [17]
  Plant response rating, Blackgrass: 95
[1]; [18]
  Plant response rating, Blackgrass: 90
[1]; Preemergence, scale 0 to 100
  Blackgrass plant response rating: 70
[2]; [19]
  Plant response rating, Galium: 0
[2]; [20]
  Plant response rating, Galium: 0
[2]; 62 g ai/ha, scale 0 to 100
  Plant response rating, Galium: 0
[2]; 8 g ai/ha, scale 0 to 100
  Galium plant response rating: 0
[3]; postemergence, 0-100 scale
  Cocklebur plant response rating: 0
[3]; [15]
  Plant response rating, Cocklebur: 0
[3]; [16]
  Plant response rating, Cocklebur: 0
[3]; [17]
  Plant response rating, Cocklebur: 0
[3]; [21]
  Plant response rating, Cocklebur: 0
[3]; [22]
  Plant response rating, Cocklebur: 0
[3]; [18]
  Plant response rating, Cocklebur: 0
[3]; Preemergence, scale 0 to 100
  Cocklebur plant response rating: 0
[4]; [19]
  Plant response rating, Sunflower: 0
[4]; [20]
  Plant response rating, Sunflower: 0
[4]; 62 g ai/ha, scale 0 to 100
  Plant response rating, Sunflower: 0
[4]; 8 g ai/ha, scale 0 to 100
  Sunflower plant response rating: 0
[5]; postemergence, 0-100 scale
  Ragweed plant response rating: 0
[5]; [15]
  Plant response rating, Ragweed: 0
[5]; [16]
  Plant response rating, Ragweed: 0
[5]; [17]
  Plant response rating, Ragweed: 0
[5]; [21]
  Plant response rating, Ragweed: 0
[5]; [22]
  Plant response rating, Ragweed: 0
[5]; [18]
  Plant response rating, Ragweed: 0
[5]; Preemergence, scale 0 to 100
  Ragweed plant response rating: 0
[6]; postemergence, 0-100 scale
  Foxtail, Giant plant response rating: 70
[6]; [15]
  Plant response rating, Foxtail, Giant: 85
[6]; [16]
  Plant response rating, Foxtail, Giant: 85
[6]; [17]
  Plant response rating, Foxtail, Giant: 95
[6]; [21]
  Plant response rating, Foxtail, Giant: 60
[6]; [22]
  Plant response rating, Foxtail, Giant: 90
[6]; [18]
  Plant response rating, Foxtail, Giant: 100
[6]; Preemergence, scale 0 to 100
  Foxtail, Giant plant response rating: 50
[7]; postemergence, 0-100 scale
  Goosegrass plant response rating: 0
[7]; [15]
  Plant response rating, Goosegrass: 0
[7]; [16]
  Plant response rating, Goosegrass: 0
[7]; [17]
  Plant response rating, Goosegrass: 50
[7]; [21]
  Plant response rating, Goosegrass: 50
[7]; [22]
  Plant response rating, Goosegrass: 75
[7]; [18]
  Plant response rating, Goosegrass: 85
[7]; Preemergence, scale 0 to 100
  Goosegrass plant response rating: 0
[8]; postemergence, 0-100 scale
  Johnsongrass plant response rating: 0
[8]; [15]
  Plant response rating, Johnsongrass: 0
[8]; [16]
  Plant response rating, Johnsongrass: 0
[8]; [17]
  Plant response rating, Johnsongrass: 30
[8]; [21]
  Plant response rating, Johnsongrass: 0
[8]; [22]
  Plant response rating, Johnsongrass: 0
[8]; [18]
  Plant response rating, Johnsongrass: 0
[8]; Preemergence, scale 0 to 100
  Johnsongrass plant response rating: 0
[9]; postemergence, 0-100 scale
  Lambsquarters plant response rating: 0
[9]; [15]
  Plant response rating, Lambsquarters: 0
[9]; [16]
  Plant response rating, Lambsquarters: 0
[9]; [17]
  Plant response rating, Lambsquarters: 10
[9]; [21]
  Plant response rating, Lambsquarters: 0
[9]; [22]
  Plant response rating, Lambsquarters: 0
[9]; [18]
  Plant response rating, Lambsquarters: 40
[9]; Preemergence, scale 0 to 100
  Lambsquarters plant response rating: 0
[10]; postemergence, 0-100 scale
  Crabgrass, Large plant response rating: 5
[10]; [15]
  Plant response rating, Crabgrass, Large: 60
[10]; [16]
  Plant response rating, Crabgrass, Large: 75
[10]; [17]
  Plant response rating, Crabgrass, Large: 80
[10]; [21]
  Plant response rating, Crabgrass, Large: 20
[10]; [22]
  Plant response rating, Crabgrass, Large: 60
[10]; [18]
  Plant response rating, Crabgrass, Large: 80
[10]; Preemergence, scale 0 to 100
  Crabgrass, Large plant response rating: 0
[11]; postemergence, 0-100 scale
  Wheat plant response rating: 0
[11]; [15]
  Plant response rating, Wheat: 0
[11]; [16]
  Plant response rating, Wheat: 0
[11]; [17]
  Plant response rating, Wheat: 0
[11]; [21]
  Plant response rating, Wheat: 0
[11]; [22]
  Plant response rating, Wheat: 0
[11]; [18]
  Plant response rating, Wheat: 15
[11]; Preemergence, scale 0 to 100
  Wheat plant response rating: 0
Wild oat (Avena fatua); postemergence, 0-100 scale
  Oat, Wild plant response rating: 25
Wild oat (Avena fatua); [15]
  Plant response rating, Oat, Wild: 55
Wild oat (Avena fatua); [16]
  Plant response rating, Oat, Wild: 70
Wild oat (Avena fatua); [17]
  Plant response rating, Oat, Wild: 95
Wild oat (Avena fatua); [21]
  Plant response rating, Oat, Wild: 0
Wild oat (Avena fatua); [22]
  Plant response rating, Oat, Wild: 0
Wild oat (Avena fatua); [18]
  Plant response rating, Oat, Wild: 60
Wild oat (Avena fatua); Preemergence, scale 0 to 100
  Oat, Wild plant response rating: 0
[12]; postemergence, 0-100 scale
  Nutsedge, Yellow plant response rating: 0
[12]; [15]
  Plant response rating, Nutsedge, Yellow: 0
[12]; [16]
  Plant response rating, Nutsedge, Yellow: 0
[12]; [17]
  Plant response rating, Nutsedge, Yellow: 0
[12]; [21]
  Plant response rating, Nutsedge, Yellow: 0
[12]; [22]
  Plant response rating, Nutsedge, Yellow: 0
[12]; [18]
  Plant response rating, Nutsedge, Yellow: 0
[12]; Preemergence, scale 0 to 100
  Nutsedge, Yellow plant response rating: 0
[13]; [23]
  Windgrass plant response rating: 40
[13]; 16 g ai/ha, scale 0 to 100
  Plant response rating, Windgrass: 60
[13]; [24]
  Plant response rating, Windgrass: 60
[13]; 62 g ai/ha, scale 0 to 100
  Plant response rating, Windgrass: 98
[14]; [23]
  Barley plant response rating: 0
[14]; 16 g ai/ha, scale 0 to 100, 0 no effect, 100 complete control
  Plant response rating, Barley: 0
[14]; [24]
  Plant response rating, Barley: 0
[14]; 62 g ai/ha, scale 0 to 100
  Plant response rating, Barley: 0
